Broadly, the Kd is the free concentration of one partner at which half of the binding sites on the other are occupied at equilibrium, for simple one-to-one binding. For orientation: MBC means the lowest tested concentration that kills the bacteria rather than only halting them. Higher therefore signals less potent killing. The term MIC denotes the lowest concentration found to suppress growth. A high value points to a less susceptible organism.

These results are taken from publication PMC6969910, “Repurposing Dihydropyridines for Treatment of Helicobacter pylori Infection” (Pharmaceutics, 2019).

For series [1], the target named is T1, H. pylori HsrA response regulator (Helicobacter pylori, UniProt O25684). It is filed as biochemical. The conditions noted are these: EMSA. The method, then:
The in vitro biological activity of the H. pylori HsrA response regulator and its potential inhibition by DHP drugs were assessed by electrophoretic mobility shift assay (EMSA) as previously described. Briefly, 120 ng of target DNA (promoter region of the H. pylori porGDAB operon) was mixed with 6 µM of recombinant HsrA [17] in the presence of increasing concentrations (0.1 to 2 mM) of selected DHP drugs. Mixtures of DNA and protein in a 20 μL reaction volume containing 10 mM bis-Tris (pH 7.5), 40 mM KCl, 100 mg/L BSA, 1 mM DTT and 5% glycerol were incubated at room temperature for 20 min and then separated by 6% native polyacrylamide gel electrophoresis. A 150 bp fragment of the Anabaena sp. PCC 7120 gene pkn22 was included as non-specific competitor DNA in all assays. EMSA gels were stained with SYBR Safe® (Thermo Fisher Scientific, Bothell, WA, USA) and analyzed using the Bio-Rad Gel Doc 2000 imaging system.

Series [2] deals with T1, H. pylori HsrA response regulator. Put plainly: biochemical. The conditions noted are these: ITC, 25 °C, pH 8. It counts as binding. As for the experimental part:
Thermodynamic parameters of the molecular interaction between HsrA and its DHP-class inhibitors were analyzed by isothermal titration calorimetry (ITC) using an AutoiTC200 calorimeter (MicroCal, Malvern Instruments, Malvern, Worcestershire, UK). A solution of 20 µM of the protein in 50 mM Tris-HCl [pH 8], 150 mM NaCl, 10% glycerol, 1% DMSO was titrated with 200 µM of the corresponding ligand (DHP) dissolved in the same buffer at 25 °C. A total of 19 injections of 2 μL was added sequentially to the sample cell after 150 s spacing to ensure that the thermal power returned to the baseline before the next injection. Dissociation constants and binding enthalpies were calculated by non-linear least squares regression data analysis using the software package Origin 7.0 (OriginLab, Northampton, MA, USA).

The subject of series [3] is H. pylori ATCC 700392. Put plainly: MIC/MBC by broth microdilution, strain ATCC 700392. It is filed as cell-based. To be noted: Helicobacter pylori, ATCC700392.
Series [4] concerns H. pylori ATCC 43504 (metronidazole-resistant). Put plainly: MIC/MBC by broth microdilution, strain ATCC 43504 (MTZ-R). It is filed as cell-based. The conditions noted are these: Helicobacter pylori. A general note: Broth dilution looks for growth in wells or tubes with falling amounts of substance.
In series [5] the test system is H. pylori ATCC 700684 (clarithromycin resistant). Put plainly: MIC/MBC by broth microdilution, strain ATCC 700684 (CLR-R). To be noted: Helicobacter pylori. It counts as cell-based.
The subject of series [6] is H. pylori strain ATCC 700684. Put plainly: Time-kill kinetics assay. It counts as cell-based, Helicobacter pylori. The conditions noted are these: 2 × MIC. As for the experimental part:
Time–kill curves for selected DHP drugs were determined using the H. pylori strain ATCC 700684 [17]. […] DMSO instead of drugs was included as control. Colony forming units (CFUs) were determined after 4, 8, and 24 h of drug exposition by culturing on Blood Agar Base No.2 supplemented with 8% defibrinated horse blood for 72 h under microaerobic conditions. Each determination was performed twice in triplicate and the results were presented as log10 CFU/mL versus incubation time. Statistical analysis was performed using the Mann–Whitney U test. A p value smaller than 0.05 was considered significant.

Series [7] deals with Mouse. To be noted: ref PubChem; cited from earlier work.
The subject of series [8] is H. pylori essential response regulator HsrA. Also noted: method as in PMID 31383920. To be noted: binds native state of HsrA; cited from earlier work.

≈ marks a conversion by molar mass, not a printed value.

T1 sequence (O25684 entry or part of it): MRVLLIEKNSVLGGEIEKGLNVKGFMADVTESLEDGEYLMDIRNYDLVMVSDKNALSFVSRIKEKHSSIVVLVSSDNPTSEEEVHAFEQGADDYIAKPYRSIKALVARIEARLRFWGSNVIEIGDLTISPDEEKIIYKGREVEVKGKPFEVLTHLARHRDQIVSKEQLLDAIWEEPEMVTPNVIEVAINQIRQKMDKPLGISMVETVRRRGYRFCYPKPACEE

As to `COC(=O)C1=C(C)NC(C)=C(C(=O)OCCN(C)Cc2ccccc2)C1c1cccc([N+](=O)[O-])c1` (stereo not shown) [Nicardipine], in series [1] (6 µM HsrA, 120 ng target promoter, 0.1 to 2 mM DHP), the “Inhibition of the DNA binding activity of HsrA” value is “noticeably inhibited”. Further, the “Inhibition of HsrA activity at 100 μM” value in series [1] (100 μM drug, 6 μM HsrA) is recorded as “partially inhibited”. The “n (binding stoichiometry)” value in series [2] (absolute error 0.06) was found to be 0.72. The compound further returned a ΔG in series [2] (absolute error 0.2 kcal/mol) of -7.5 kcal/mol. The compound further yielded a ΔH in series [2] (absolute error 0.4 kcal/mol) of -2.0 kcal/mol. For the same compound, in series [2] (relative error 40%, read-out: Kd), the dissociation constant (Kd) worked out at 3 µM. Moreover, the MBC in series [3] (ATCC 700392), in series [4] (ATCC43504) and in series [5] (ATCC700684) was 8 µg/mL (≈ 16.7 µM) each time. Besides, the MIC in series [3] (ATCC 700392, 72 h) came to 8 µg/mL (≈ 16.7 µM); in series [4] (ATCC43504, 72 h), 8 µg/mL (≈ 16.7 µM); in series [5] (ATCC700684, 72 h) it was 8 µg/mL (≈ 16.7 µM). Moreover, in series [6], the “Decline in bacterial counts (time-kill kinetics) compared to other DHPs” value is reported as “significantly faster”. Moreover, the “Killing effect after 4 h of exposition” value in series [6] (4 h) is listed as “completely lethal”. Besides, the “Mouse LD50 (mg/kg, oral)” value in series [7] was 305 mg/kg. In addition, in series [8], the “Effect on HsrA conformational stability (thermal shift)” value was “increased the protein conformational stability”.
